Where two headings read alike, the source gives them in different places.
Columns and labels:
[1] = tested on: breast cancer line T47D cells; experiment: CTG (CellTiter-Glo) cell viability assay, 6×6 combo matrix, 72 h, T47D; conditions: Homo sapiens;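 also: luminescence read-out after 72 h at 37 °C under 5% CO2, with medium-only wells as blanks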
Method: (§1) To measure the cell inhibition effect of compounds and synergy effect of test articles on ten (10) cell lines using standard CTG assay.
(§2) 7) Using complete cell medium, adjust the volume of the suspension to achieve a cell concentration.
(§3) b. A549, T47D, SK-OV-3, MKN45, SK-Hep-1, HT-29, Capan-1, 786-O and LNCaP cell line, for compounds and vehicle groups, the seeding density of cell lines is 3000 cells/80 µL per well. For blank groups, add 100 µL medium. For PBS groups, add 100 µL PBS.
(§4) 8) Incubate the U87MG, A549, T47D, SK-OV-3, MKN45, SK-Hep-1, HT-29, Capan-1, 786-O and LNCaP cells overnight at 37° C./5% CO2.
(§5) Solid compound of cis-platinum was solubilized in PBS to a stock solution of 3.333 mM.
(§6) Final volume is 100 µL per well at this point.
(§7) 5) Incubate the plates at 37° C./5% CO2 for 72 hours.
(§8) 1) Incubate the plates at room temperature and away from light for 30 minutes.
(§9) 3) Add 100 µL /well of CellTiter-Glo® Reagent in each well. Avoid light.
(§10) 4) Mix contents for 2 minutes on an orbital shaker.
(§11) 5) Incubate plate at room temperature for 10 minutes to stabilize the luminescent signal.
6) Read plates in Envision.

[2] = tested on: ovarian cancer line SK-OV3 cells;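 also: luminescent signal read after CellTiter-Glo addition, cells exposed to compounds for 72 h at 37 °C under 5% CO2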
Method: as §1, §2
A549, T47D, SK-OV-3, MKN45, SK-Hep-1, HT-29, Capan-1, 786-O and LNCaP cell line, for compounds and vehicle groups, the seeding density of cell lines is 3000 cells/80 µL per well. For blank groups, add 100 µL medium. For PBS groups, add 100 µL PBS.
as §4, §5, §6, §7, §8, §9, §10, §11
6) Read plates in Envision.

[3] = tested on: glioblastoma line U87MG cells; experiment: CTG (CellTiter-Glo) cell viability assay, 6×6 combo matrix, 72 h, U87MG; conditions: Homo sapiens, U-87 MG;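 also: U87MG cells seeded at 2000 per well, exposed 72 h, viability read by CellTiter-Glo luminescence, inhibition expressed relative to vehicle-treated wells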
[4] = tested on: lung adenocarcinoma line A549 cells; experiment: CTG (CellTiter-Glo) cell viability assay, 6×6 combo matrix, 72 h, A549; conditions: A549;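 also: luminescent ATP readout with CellTiter-Glo after compound exposure, used to assess growth inhibition and combination synergy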
[5] = tested on: Liver cancer line SK-HEP-1 cells; experiment: CTG (CellTiter-Glo) cell viability assay, 6×6 combo matrix, 72 h, SK-Hep-1; conditions: Homo sapiens;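 also: luminescent signal read after 72 h compound exposure at 37 °C under 5% CO2, with medium-only wells serving as blank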
Method: as §1, §2, §3, §4, §5, §6, §7, §8, §9, §10, §11
6) Read plates in Envision.

[6] = tested on: kidney cancer line 786-O cells;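 also: luminescence read-out after adding CellTiter-Glo reagent, with cells incubated at 37 °C under 5% CO2 during compound exposure, part of a ten cell line synergy study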
[7] = tested on: colorectal cancer line HT29 cells; experiment: CTG (CellTiter-Glo) cell viability assay, 6×6 combo matrix, 72 h, HT29; conditions: for Relatively Cell inhibition of vehicle control(%): HT29;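 as to all read-outs here: cells exposed to compounds for 72 hours at 37 °C under 5% CO2, then viability read as luminescence after adding CellTiter-Glo Reagent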
Method: as §1, §2, §3, §4, §5, §6, §7, §8, §9, §10, §11
6) Read plates in Envision.

[8] = tested on: breast cancer line T47D cells;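 also: luminescence read-out after 72 h at 37 °C under 5% CO2, with medium-only wells as blanks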
Method: as §1, §2, §3, §4, §5, §6, §7, §8, §9, §10, §11
6) Read plates in Envision.

[9] = tested on: pancreatic cancer line Capan-1 cells; experiment: CTG (CellTiter-Glo) cell viability assay, 6×6 combo matrix, 72 h, Capan-1; type: cell-based; conditions: for Relatively Cell inhibition of vehicle control(%): Capan-1
Method in brief: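 Capan-1 cells were seeded at 3000 cells per well and incubated overnight at 37 °C/5% CO2. They were then treated with compounds in a 6×6 combination matrix for 72 h at 37 °C/5% CO2. Viability was read by CellTiter-Glo luminescence to assess inhibition and synergy.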

[10] = tested on: Liver cancer line SK-HEP-1 cells;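 also: luminescent signal read after 72 h compound exposure at 37 °C under 5% CO2, with medium-only wells serving as blank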
Method: as §1, §2, §3, §4, §5, §6, §7, §8, §9, §10, §11
6) Read plates in Envision.

[11] = tested on: prostate adenocarcinoma line LNCap cells; experiment: CTG (CellTiter-Glo) cell viability assay, 6×6 combo matrix, 72 h, LNCaP; conditions: Homo sapiens, LNCaP;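 also: luminescence signal read after adding CellTiter-Glo reagent, with cells exposed to compounds for 72 h at 37 °C under 5% CO2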
Method: as §1, §2, §3, §4, §5, §6, §7, §8, §9, §10, §11
6) Read plates in Envision.

[12] = tested on: gastric cancer line MKN45 cells; experiment: CTG (CellTiter-Glo) cell viability assay, 6×6 combo matrix, 72 h, MKN45;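 also: MKN45 cell viability read as CellTiter-Glo luminescence after 72 h culture at 37 °C under 5% CO2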
[13] = tested on: kidney cancer line 786-O cells; experiment: CTG (CellTiter-Glo) cell viability assay, 6×6 combo matrix, 72 h, 786-O; conditions: for Relatively Cell inhibition of vehicle control(%): 786-O;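 as to all read-outs here: luminescence read-out after adding CellTiter-Glo reagent, with cells incubated at 37 °C under 5% CO2 during compound exposure, part of a ten cell line synergy study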
[14] = tested on: prostate adenocarcinoma line LNCap cells;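 also: luminescence signal read after adding CellTiter-Glo reagent, with cells exposed to compounds for 72 h at 37 °C under 5% CO2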
Method: as §1, §2, §3, §4, §5, §6, §7, §8, §9, §10, §11
6) Read plates in Envision.

[15] = Homo sapiens, HT-29, read-out: Relatively Cell inhibition of vehicle control(%)
[16] = Homo sapiens, 786-0, read-out: Relatively Cell inhibition of vehicle control

CC(=O)O[C@H]1C(=O)[C@@]2(C)[C@H]([C@H](OC(=O)c3ccccc3)[C@]3(O)C[C@H](OC(=O)[C@H](O)[C@@H](NC(=O)c4ccccc4)c4ccccc4)C(C)=C1C3(C)C)[C@]1(OC(C)=O)CO[C@@H]1C[C@@H]2O [taxol, paclitaxel]
inhibition at 0.008 µM ([1]; read-out: Relatively Cell inhibition of vehicle control(%), T47D, 8 nM taxol only (LB-1 0)): 33.2%
inhibition at 0.008 µM ([1]; read-out: Relatively Cell inhibition of vehicle control(%), T47D, 8 nM taxol only (myricetin 0)): 40.8%
inhibition at 0.04 µM ([1]; read-out: Relatively Cell inhibition of vehicle control(%), T47D, 40 nM taxol only (LB-1 0)): 42.2%
inhibition at 0.04 µM ([1]; read-out: Relatively Cell inhibition of vehicle control(%), T47D, 40 nM taxol only (myricetin 0)): 48.6%
inhibition at 0.2 µM ([1]; read-out: Relatively Cell inhibition of vehicle control(%), T47D, 200 nM taxol only (LB-1 0)): 42%
inhibition at 0.2 µM ([1]; read-out: Relatively Cell inhibition of vehicle control(%), T47D, 200 nM taxol only (myricetin 0)): 48.5%
inhibition at 1 µM ([1]; read-out: Relatively Cell inhibition of vehicle control(%), T47D, 1000 nM taxol only (LB-1 0)): 38%
inhibition at 1 µM ([1]; read-out: Relatively Cell inhibition of vehicle control(%), T47D, 1000 nM taxol only (myricetin 0)): 45.8%
inhibition [2]: 17.4%
inhibition at 0.008 µM ([3]; 72 h, read-out: Relatively Cell inhibition of vehicle control(%), U87MG, 8 nM taxol only (LB-1 0), 72 h): 42.7%
inhibition at 0.04 µM ([3]; 72 h, read-out: Relatively Cell inhibition of vehicle control(%), U87MG, 40 nM taxol only (LB-1 0), 72 h): 53.9%
inhibition at 0.2 µM ([3]; 72 h, read-out: Relatively Cell inhibition of vehicle control(%), U87MG, 200 nM taxol only (LB-1 0), 72 h): 67.8%
inhibition at 1 µM ([3]; 72 h, read-out: Relatively Cell inhibition of vehicle control(%), U87MG, 1000 nM taxol only (LB-1 0), 72 h): 66.2%
inhibition at 0.008 µM ([3]; read-out: Relatively Cell inhibition of vehicle control(%), taxol 8 nM only): 46.5%
inhibition at 0.04 µM ([3]; read-out: Relatively Cell inhibition of vehicle control(%), taxol 40 nM only): 60.6%
inhibition at 0.2 µM ([3]; read-out: Relatively Cell inhibition of vehicle control(%), taxol 200 nM only): 72.2%
inhibition at 1 µM ([3]; read-out: Relatively Cell inhibition of vehicle control(%), taxol 1000 nM only): 69.8%
Relatively Cell inhibition of vehicle control(%) ([4]; Tax 8 nM only (LB-1 matrix)): 55.11%
Relatively Cell inhibition of vehicle control(%) ([4]; Tax 8 nM only (myricetin matrix)): 53.76%
Relatively Cell inhibition of vehicle control(%) ([4]; Tax 40 nM only (LB-1 matrix)): 68.79%
Relatively Cell inhibition of vehicle control(%) ([4]; Tax 40 nM only (myricetin matrix)): 68.03%
Relatively Cell inhibition of vehicle control(%) ([4]; Tax 200 nM only (LB-1 matrix)): 77.44%
Relatively Cell inhibition of vehicle control(%) ([4]; Tax 200 nM only (myricetin matrix)): 75.24%
Relatively Cell inhibition of vehicle control(%) ([4]; Tax 1000 nM only (LB-1 matrix)): 76.64%
Relatively Cell inhibition of vehicle control(%) ([4]; Tax 1000 nM only (myricetin matrix)): 77.27%
inhibition at 0.008 µM ([5]; SK-HEP1, read-out: Relatively Cell inhibition of vehicle control, taxol 8 nM only (LB-1 table)): 30.6%
inhibition at 0.008 µM ([5]; SK-HEP1, read-out: Relatively Cell inhibition of vehicle control, taxol 8 nM only (myricetin table)): 36%
inhibition at 0.04 µM ([5]; SK-HEP1, read-out: Relatively Cell inhibition of vehicle control, taxol 40 nM only (LB-1 table)): 59.5%
inhibition at 0.04 µM ([5]; SK-HEP1, read-out: Relatively Cell inhibition of vehicle control, taxol 40 nM only (myricetin table)): 62.4%
inhibition at 0.2 µM ([5]; SK-HEP1, read-out: Relatively Cell inhibition of vehicle control, taxol 200 nM only (LB-1 table)): 68.8%
inhibition at 0.2 µM ([5]; SK-HEP1, read-out: Relatively Cell inhibition of vehicle control, taxol 200 nM only (myricetin table)): 65.2%
inhibition at 1 µM ([5]; SK-HEP1, read-out: Relatively Cell inhibition of vehicle control, taxol 1000 nM only (LB-1 table)): 78%
inhibition at 1 µM ([5]; SK-HEP1, read-out: Relatively Cell inhibition of vehicle control, taxol 1000 nM only (myricetin table)): 78.8%
inhibition [6]: 3.15%
inhibition at 0.008 µM [7, 15]: 67.9%
inhibition at 0.04 µM [7, 15]: 83.4%
inhibition at 0.2 µM [7, 15]: 83.1%
inhibition at 1 µM [7, 15]: 82%
Relatively Cell inhibition of vehicle control(%) ([7]; Tax 8 nM only (Myr 0)): 73.73%
Relatively Cell inhibition of vehicle control(%) ([7]; Tax 40 nM only (Myr 0)): 80.46%
Relatively Cell inhibition of vehicle control(%) ([7]; Tax 200 nM only (Myr 0)): 81.35%
Relatively Cell inhibition of vehicle control(%) ([7]; Tax 1000 nM only (Myr 0)): 79.03%
inhibition [8]: 17%
inhibition at […] ([9]; Homo sapiens, CAPAN-1, taxol 1.6 nM only, read-out: Relatively Cell inhibition of vehicle control): 17.2%
inhibition at 0.008 µM ([9]; Homo sapiens, CAPAN-1, taxol 8 nM only, read-out: Relatively Cell inhibition of vehicle control): 54.3%
inhibition at 0.04 µM ([9]; Homo sapiens, CAPAN-1, taxol 40 nM only, read-out: Relatively Cell inhibition of vehicle control): 65.8%
inhibition at 0.2 µM ([9]; Homo sapiens, CAPAN-1, taxol 200 nM only, read-out: Relatively Cell inhibition of vehicle control): 65.4%
inhibition at 1 µM ([9]; Homo sapiens, CAPAN-1, taxol 1000 nM only, read-out: Relatively Cell inhibition of vehicle control): 67.2%
Relatively Cell inhibition of vehicle control(%) ([9]; Tax 8 nM only): 51.97%
Relatively Cell inhibition of vehicle control(%) ([9]; Tax 40 nM only): 62.89%
Relatively Cell inhibition of vehicle control(%) ([9]; Tax 200 nM only): 63.24%
Relatively Cell inhibition of vehicle control(%) ([9]; Tax 1000 nM only): 64.00%
inhibition [10]: 0.78%
inhibition at 0.008 µM ([11]; read-out: Relatively Cell inhibition of vehicle control(%), taxol 8 nM only (LB-1 plate)): 54%
inhibition at 0.008 µM ([11]; read-out: Relatively Cell inhibition of vehicle control(%), taxol 8 nM only (myricetin plate)): 62.6%
inhibition at 0.04 µM ([11]; read-out: Relatively Cell inhibition of vehicle control(%), taxol 40 nM only (LB-1 plate)): 59.2%
inhibition at 0.04 µM ([11]; read-out: Relatively Cell inhibition of vehicle control(%), taxol 40 nM only (myricetin plate)): 65.5%
inhibition at 0.2 µM ([11]; read-out: Relatively Cell inhibition of vehicle control(%), taxol 200 nM only (LB-1 plate)): 56.4%
inhibition at 0.2 µM ([11]; read-out: Relatively Cell inhibition of vehicle control(%), taxol 200 nM only (myricetin plate)): 62.2%
inhibition at 1 µM ([11]; read-out: Relatively Cell inhibition of vehicle control(%), taxol 1000 nM only (LB-1 plate)): 48.8%
inhibition at 1 µM ([11]; read-out: Relatively Cell inhibition of vehicle control(%), taxol 1000 nM only (myricetin plate)): 55.6%
Relatively Cell inhibition of vehicle control(%) ([12]; Tax 8 nM only (LB-1 0)): 52.04%
Relatively Cell inhibition of vehicle control(%) ([12]; Tax 8 nM only (Myr 0)): 50.47%
Relatively Cell inhibition of vehicle control(%) ([12]; Tax 40 nM only (LB-1 0)): 48.11%
Relatively Cell inhibition of vehicle control(%) ([12]; Tax 40 nM only (Myr 0)): 56.30%
Relatively Cell inhibition of vehicle control(%) ([12]; Tax 200 nM only (LB-1 0)): 64.94%
Relatively Cell inhibition of vehicle control(%) ([12]; Tax 200 nM only (Myr 0)): 68.16%
Relatively Cell inhibition of vehicle control(%) ([12]; Tax 1000 nM only (LB-1 0)): 70.65%
Relatively Cell inhibition of vehicle control(%) ([12]; Tax 1000 nM only (Myr 0)): 69.93%
inhibition at 0.008 µM [13, 16]: 12.2%
inhibition at 0.04 µM [13, 16]: 42.6%
inhibition at 0.2 µM [13, 16]: 70%
inhibition at 1 µM [13, 16]: 74.1%
Relatively Cell inhibition of vehicle control(%) ([13]; Tax 8 nM only (LB-1 0)): 12.57%
Relatively Cell inhibition of vehicle control(%) ([13]; Tax 40 nM only (LB-1 0)): 43.18%
Relatively Cell inhibition of vehicle control(%) ([13]; Tax 200 nM only (LB-1 0)): 69.53%
Relatively Cell inhibition of vehicle control(%) ([13]; Tax 1000 nM only (LB-1 0)): 73.05%
inhibition [14]: 9.88%
